The record followed here is patent US8999990B2, “Inhibitors of the renal outer medullary potassium channel” (Merck Sharp & Dohme Corp., priority 2011, dated 2015).

For one assay, the target named is T1, hROMK (hKir1.1) (Homo sapiens, UniProt P48048).
T1 construct: expressed in transfected cells
T1 sequence (P48048 1-391): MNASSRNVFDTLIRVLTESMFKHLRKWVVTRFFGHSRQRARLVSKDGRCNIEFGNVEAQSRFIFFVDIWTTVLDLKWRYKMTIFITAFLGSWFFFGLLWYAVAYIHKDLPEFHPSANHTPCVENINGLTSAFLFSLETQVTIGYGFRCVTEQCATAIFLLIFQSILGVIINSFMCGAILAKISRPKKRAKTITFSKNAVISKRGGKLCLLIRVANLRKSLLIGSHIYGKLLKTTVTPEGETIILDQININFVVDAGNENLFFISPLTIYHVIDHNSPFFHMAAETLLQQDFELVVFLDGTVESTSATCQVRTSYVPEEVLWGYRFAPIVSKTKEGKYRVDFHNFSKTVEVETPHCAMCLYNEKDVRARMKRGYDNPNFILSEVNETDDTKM
In words: Thallium Flux Assay. The format is cell-based. The note with it: HEK293 cells stably expressing hROMK; FLIPR-Tetra, 384 wells; read-out: Thallium Flux IC50. The procedure: Several assays may be used to measure functional inhibition of the ROMK channel by compounds of the instant invention. One assay that was used to test the activity of compounds in the Examples is the functional ^86Rb^+ efflux assay described below, that measures the ability of ROMK to permeate ^86Rb^+, in the absence or presence of test compound. Under control conditions, cells loaded with ^86Rb^+ and incubated in Rb^+-free medium display a time-dependent efflux of the isotope, the rate of which depends on number of functional channels. When cells are incubated in the presence of a channel inhibitor, efflux of ^86Rb^+ is prevented in a concentration-dependent manner, and IC50 values of inhibition by compounds can be accurately determined. This assay has been established with cell lines expressing either human, rat or dog ROMK channels, and can operate in 96- or 384-well format. Importantly, the human, rat, and dog ^86Rb^+ efflux assays can be carried out in the presence of up to 100% serum allowing, therefore, an accurate estimation of the effect of protein binding on the inhibitory activity of compounds of interest. Another ROMK functional assay used to test the activity of compounds in the Examples (described below) makes use of the ability of thallium to permeate through open ROMK channels and increase the fluorescence of a dye previously loaded into the cells. Under control conditions, cells loaded with dye and exposed to thallium-containing medium display a time-dependent increase in fluorescence, the rate of which depends on number of functional channels. When cells are incubated in the presence of a channel inhibitor, the increase in fluorescence is attenuated in a concentration-dependent manner, and IC50 values of inhibition by compounds can be accurately determined. This assay has been established with cell lines expressing either human, or rat ROMK channels, and operates in 384-well format.
HEK293 cells stably expressing hROMK (hKir1.1) were grown at 37° C. in a 10% CO2 humidified incubator in complete growth media: Dulbecco's Modified Eagle Medium supplemented with non-essential amino acids, Penicillin/Streptomycin/Glutamine, G418 and FBS. At >80% confluency, aspirate the media from the flask and rinse with 10 mL Calcium/Magnesium-free PBS. Add 5 mL of 1× trypsin (prepared in Ca/Mg Free PBS) to T-225 flask and return flask to 37° C./CO2 incubator for 2-3 minutes. To dislodge the cell, gently bang the side of the flask with your hand. Triturate the cells completely and then transfer the cells to 25 mL complete media. Centrifuge at 1,500 rpm for 6 min followed by resuspension in complete growth media and determine cell concentration. For typical re-seeding, 4E6 cells/T-225 flask will attain >80% confluency in 4 days. Under ideal growth conditions and appropriate tissue culture practices, this cell line is stable for 40-45 passages.
• FluxOR™ Reagent (Component A) • FluxOR™ Assay Buffer (Component B)—10× Concentrate • PowerLoad™ Concentrate (Component C)—100× Concentrate • Probenecid (Component D)—Lyophilized sample is kept at −20° C. Water soluble, 100× after solubilization in 1 mL water. […] Store at 4° C. • Thallium sulfate (Tl2SO4) Concentrate (Component G)—50 mM in water. […]
Turning to `Cc1c(C(O)CN2CCN(CCc3ccc(C#N)cn3)C(=O)C2)ccc2c1COC2=O` (single isomer, unassigned) [Example 55, 6-(2-{4-[2-Hydroxy-2-(4-methyl-1-oxo-1,3-dihydro-2-benzofuran-5-yl)ethyl]-2-oxopiperazin-1-yl}ethyl)pyridine-3-carbonitrile], the 50% inhibitory concentration (IC50) came out at 310 nM. For the compound `Cc1c(C(O)CN2CCN(C[C@H](O)c3ccc4c(c3C)COC4=O)CC2=O)ccc2c1COC2=O` (stereo partly drawn) [Example 45, 4-[(2R)-2-Hydroxy-2-(4-methyl-1-oxo-1,3-dihydro-2-benzofuran-5-yl)ethyl]-1-[2-hydroxy-2-(4-methyl-1-oxo-1,3-dihydro-2-benzofuran-5-yl)ethyl]piperazin-2-one], the IC50 stood at 680 nM. As for `Cc1c(C(O)CN2CCN(C[C@@H](O)c3ccc4c(c3C)COC4=O)CC2=O)ccc2c1COC2=O` (stereo partly drawn) [Example 46, 4-[(2S)-2-Hydroxy-2-(4-methyl-1-oxo-1,3-dihydro-2-benzofuran-5-yl)ethyl]-1-[2-hydroxy-2-(4-methyl-1-oxo-1,3-dihydro-2-benzofuran-5-yl)ethyl]piperazin-2-one], the half-maximal inhibitory concentration (IC50) stood at 270 nM.

`Cc1c([C@@H](O)CN2CCN(C3CCc4cc(C#N)ccc4C3)C(=O)C2)ccc2c1COC2=O` (stereo partly drawn) [Example 47, 6-{4-[(2R)-2-Hydroxy-2-(4-methyl-1-oxo-1,3-dihydro-2-benzofuran-5-yl)ethyl]-2-oxopiperazin-1-yl}-5,6,7,8-tetrahydronaphthalene-2-carbonitrile]: the half-inhibitory concentration (IC50) was 60 nM.

In the case of `Cc1c(C(=O)CN2CCN(C[C@H](O)c3ccc4c(c3C)COC4=O)CC2=O)ccc2c1COC2=O` [Example 48, 4-[(2R)-2-Hydroxy-2-(4-methyl-1-oxo-1,3-dihydro-2-benzofuran-5-yl)ethyl]-1-[2-(4-methyl-1-oxo-1,3-dihydro-2-benzofuran-5-yl)-2-oxoethyl]piperazin-2-one], the concentration for half-maximal inhibition (IC50) amounted to 80 nM. Still for that read-out and setting: for `Cc1cc2c(cc1C(O)CN1CCN(C3CCc4cc(C#N)ccc4C3)C(=O)C1)COC2=O` (stereo not shown) [Example 49, 6-{4-[2-Hydroxy-2-(6-methyl-1-oxo-1,3-dihydro-2-benzofuran-5-yl)ethyl]-2-oxopiperazin-1-yl}-5,6,7,8-tetrahydronaphthalene-2-carbonitrile] the value was 90 nM. Consider `COc1ccc(C(=O)CN2CCN(C[C@H](O)c3ccc4c(c3C)COC4=O)CC2=O)c(C)c1C#N` [Example 50, 3-({4-[(2R)-2-Hydroxy-2-(4-methyl-1-oxo-1,3-dihydro-2-benzofuran-5-yl)ethyl]-2-oxopiperazin-1-yl}acetyl)-6-methoxy-2-methylbenzonitrile], for which the IC50 worked out at 197 nM. `Cc1c(C(=O)CN2CCN(C[C@H](O)c3ccc4c(c3C)COC4=O)CC2=O)ccc(F)c1C#N` [Example 51, 6-Fluoro-3-({4-[(2R)-2-hydroxy-2-(4-methyl-1-oxo-1,3-dihydro-2-benzofuran-5-yl)ethyl]-2-oxopiperazin-1-yl}acetyl)-2-methylbenzonitrile]: the IC50 turned out to be 125 nM. Consider `Cc1c(CCN2CCN(C[C@H](O)c3ccc4c(c3C)COC4=O)CC2=O)ccc2c1COC2=O` [Example 52, 4-[(2R)-2-hydroxy-2-(4-methyl-1-oxo-1,3-dihydro-2-benzofuran-5-yl)ethyl]-1-[2-(4-methyl-1-oxo-1,3-dihydro-2-benzofuran-5-yl)ethyl]piperazin-2-one], for which the half-inhibitory concentration (IC50) was 235 nM.

Consider `Cc1c(CCN2CCN(C[C@@H](O)c3ccc4c(c3C)COC4=O)CC2=O)ccc2c1COC2=O` [Example 53, 4-[(2S)-2-hydroxy-2-(4-methyl-1-oxo-1,3-dihydro-2-benzofuran-5-yl)ethyl]-1-[2-(4-methyl-1-oxo-1,3-dihydro-2-benzofuran-5-yl)ethyl]piperazin-2-one], for which the half-maximal inhibitory concentration (IC50) was 660 nM. On the same count and under the same terms, the value for `Cc1c(CCN2CCN(CCc3ccc(C#N)cn3)C(=O)C2)ccc2c1COC2=O` [Example 54, 6-(2-{4-[2-(4-Methyl-1-oxo-1,3-dihydro-2-benzofuran-5-yl)ethyl]-2-oxopiperazin-1-yl}ethyl)pyridine-3-carbonitrile] was 780 nM.

The same assay, now with this note: text of Example 55; separated stereo-isomer; read-out: IC50 in the Thallium Flux Assay.
Turning to `Cc1c(C(O)CN2CCN(CCc3ccc(C#N)cn3)C(=O)C2)ccc2c1COC2=O` (single isomer, unassigned) [Isomer A, 6-(2-{4-[2-Hydroxy-2-(4-methyl-1-oxo-1,3-dihydro-2-benzofuran-5-yl)ethyl]-2-oxopiperazin-1-yl}ethyl)pyridine-3-carbonitrile], the IC50 is over 1000 nM.

Staying with this assay, now noted: text of Example 55; separated stereo-isomers.
Consider `Cc1c(C(O)CN2CCN(CCc3ccc(C#N)cn3)C(=O)C2)ccc2c1COC2=O` (single isomer, unassigned) [Example 55, 6-(2-{4-[2-Hydroxy-2-(4-methyl-1-oxo-1,3-dihydro-2-benzofuran-5-yl)ethyl]-2-oxopiperazin-1-yl}ethyl)pyridine-3-carbonitrile], for which the “potency in the Thallium Flux Assay compared with Isomer A” value is listed as “more potent”.

As usually defined, the IC50 is the point on the concentration scale where inhibition reaches its midpoint.
